Consider 19 compounds from patent publication US9416128B2, “Fused heterocyclic compounds as ion channel modulators” (Gilead Sciences, Inc., priority 2013, dated 2016).

The structures appear in SMILES notation.

For test [1], the target named is wild-type human cardiac sodium channel, hNaV 1.5 (Late INa) (Homo sapiens, UniProt Q14524). The test can be described thus: Late INa screening assay (whole cell patch clamp, QPatch, Tefluthrin-induced late current). Type of test: cell-based. Particulars: HEK293, % inhibition (percent block of late INa) at 1 uM; HEK293 hNaV1.5; 10 μM Tefluthrin; read-out: Nav1.5 Late INa 1 uM. In short, it runs like this: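 HEK293 cells stably expressing hNaV1.5 without beta subunits, whole-cell patch clamp at 23-25° C; late current induced by 10 μM Tefluthrin, measured 240-265 ms into 250 ms steps to −20 mV from −120 mV at 0.1 Hz. Compounds typically 0.3 or 1 μM, three additions over 5 min; percent block normalized to 0Na baseline with rundown correction.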
On the technique in general: The patch-clamp technique gives a direct electrical read-out from membranes.

The next test addresses T1, hNaV1.2 (SCN2A) (Homo sapiens, UniProt Q99250).
T1 construct: expressed in transfected cells
The test can be described thus: Use-dependent inhibition of the CNS NaV1.2 sodium channel. It is filed as cell-based. Particulars: HEK-293, % inhibition, 25 Hz; for inhibition at 1 µM: use-dependent block at 1 uM, read-out: Nav1.2 UDB 25 Hz 1 uM; for inhibition at 10 µM: use-dependent block at 10 uM, read-out: Nav1.2 UDB 25 Hz 10 uM. The procedure:
HEK-293 cells stably expressing wild-type (WT) hNaV1.2 (SCN2A NCBI # NM_021007.2, SCN1B NCBI # NM_001037.4, SCN2B NCBI # NM_004588.2) were used to record INa. Cells are maintained with standard tissue culture procedures and stable channel expression is maintained with 800 ug/mL G418 and 3 ug/mL Puromycin in the culture medium. Unless otherwise noted, all reagents are purchased from Sigma-Aldrich (St Louis, Mo., U.S.A.).
Assays measuring Use-Dependent Block (UDB) of NaV1.2 are performed on an automated electrophysiology platform, QPatch 16X or QPatch HT (Sophion Bioscience, Copenhagen, Denmark), using the whole cell patch clamp technique to measure currents through the cell membrane. Series resistance compensation is set to 100% and series resistance and whole-cell compensation are performed automatically. Currents stored in the Sophion Bioscience Oracle database (Sophion Bioscience, Copenhagen, Denmark). Analysis is performed using QPatch Assay software and data are compiled in Excel 2010 (Microsoft, Seattle, Wash., U.S.A.). The internal (pipette) solution consists of (in mM) 105 CsF, 10 NaF, 20 CsCl, 2 EGTA, 10 HEPES, 10 Dextrose with a pH of 7.35 and osmolarity of 300 mOsmol/kg. The external (bath) solution contains in (mM): 145 NaCl, 4 KCl, 1.8 CaCl2, 1 MgCl2, 10 dextrose, 10 HEPES, with a pH of 7.35 and osmolarity of 310 mOsmol/kg. Experiments are carried out at 23-25° C.
Compound stocks are routinely made by the Gilead Sample Bank in vials to 10 mM in dimethyl sulfoxide (DMSO). In some cases, when compounds are not soluble in DMSO, they are made in 100% ethanol. Stocks are sonicated as necessary. […]
Cells are allowed to stabilize for 10 min after establishment of the whole-cell configuration before current is measured. The test compound is applied 2 times at 60 second intervals. After the second compound addition, a 200 second wait period was imposed to allow for equilibration. Leak currents are subtracted by using an online P/4 procedure and all currents are low-pass Bessel filtered at 5 kHz and digitized at […].
Results are presented as mean percentage inhibition.
Use-dependent block of NaV1.2 peak current is measured during pulse number 20 of a voltage pulse train (0 mV, 20 ms, 20 pulses, 25 Hz) from a holding potential of −120 mV.
Currents are normalized to the peak current recorded in response to the first pulse in each frequency train. The voltage protocol for UDB was performed in the absence and presence of compound and percentage inhibition was calculated with respect to the compound free condition.
Data analysis is performed using QPatch Assay Software 4.0, and Excel 2002 (Microsoft, Seattle, Wash., U.S.A.).

wild-type human cardiac sodium channel, hNaV 1.5 (Late INa), sequence (Q14524 whole entry): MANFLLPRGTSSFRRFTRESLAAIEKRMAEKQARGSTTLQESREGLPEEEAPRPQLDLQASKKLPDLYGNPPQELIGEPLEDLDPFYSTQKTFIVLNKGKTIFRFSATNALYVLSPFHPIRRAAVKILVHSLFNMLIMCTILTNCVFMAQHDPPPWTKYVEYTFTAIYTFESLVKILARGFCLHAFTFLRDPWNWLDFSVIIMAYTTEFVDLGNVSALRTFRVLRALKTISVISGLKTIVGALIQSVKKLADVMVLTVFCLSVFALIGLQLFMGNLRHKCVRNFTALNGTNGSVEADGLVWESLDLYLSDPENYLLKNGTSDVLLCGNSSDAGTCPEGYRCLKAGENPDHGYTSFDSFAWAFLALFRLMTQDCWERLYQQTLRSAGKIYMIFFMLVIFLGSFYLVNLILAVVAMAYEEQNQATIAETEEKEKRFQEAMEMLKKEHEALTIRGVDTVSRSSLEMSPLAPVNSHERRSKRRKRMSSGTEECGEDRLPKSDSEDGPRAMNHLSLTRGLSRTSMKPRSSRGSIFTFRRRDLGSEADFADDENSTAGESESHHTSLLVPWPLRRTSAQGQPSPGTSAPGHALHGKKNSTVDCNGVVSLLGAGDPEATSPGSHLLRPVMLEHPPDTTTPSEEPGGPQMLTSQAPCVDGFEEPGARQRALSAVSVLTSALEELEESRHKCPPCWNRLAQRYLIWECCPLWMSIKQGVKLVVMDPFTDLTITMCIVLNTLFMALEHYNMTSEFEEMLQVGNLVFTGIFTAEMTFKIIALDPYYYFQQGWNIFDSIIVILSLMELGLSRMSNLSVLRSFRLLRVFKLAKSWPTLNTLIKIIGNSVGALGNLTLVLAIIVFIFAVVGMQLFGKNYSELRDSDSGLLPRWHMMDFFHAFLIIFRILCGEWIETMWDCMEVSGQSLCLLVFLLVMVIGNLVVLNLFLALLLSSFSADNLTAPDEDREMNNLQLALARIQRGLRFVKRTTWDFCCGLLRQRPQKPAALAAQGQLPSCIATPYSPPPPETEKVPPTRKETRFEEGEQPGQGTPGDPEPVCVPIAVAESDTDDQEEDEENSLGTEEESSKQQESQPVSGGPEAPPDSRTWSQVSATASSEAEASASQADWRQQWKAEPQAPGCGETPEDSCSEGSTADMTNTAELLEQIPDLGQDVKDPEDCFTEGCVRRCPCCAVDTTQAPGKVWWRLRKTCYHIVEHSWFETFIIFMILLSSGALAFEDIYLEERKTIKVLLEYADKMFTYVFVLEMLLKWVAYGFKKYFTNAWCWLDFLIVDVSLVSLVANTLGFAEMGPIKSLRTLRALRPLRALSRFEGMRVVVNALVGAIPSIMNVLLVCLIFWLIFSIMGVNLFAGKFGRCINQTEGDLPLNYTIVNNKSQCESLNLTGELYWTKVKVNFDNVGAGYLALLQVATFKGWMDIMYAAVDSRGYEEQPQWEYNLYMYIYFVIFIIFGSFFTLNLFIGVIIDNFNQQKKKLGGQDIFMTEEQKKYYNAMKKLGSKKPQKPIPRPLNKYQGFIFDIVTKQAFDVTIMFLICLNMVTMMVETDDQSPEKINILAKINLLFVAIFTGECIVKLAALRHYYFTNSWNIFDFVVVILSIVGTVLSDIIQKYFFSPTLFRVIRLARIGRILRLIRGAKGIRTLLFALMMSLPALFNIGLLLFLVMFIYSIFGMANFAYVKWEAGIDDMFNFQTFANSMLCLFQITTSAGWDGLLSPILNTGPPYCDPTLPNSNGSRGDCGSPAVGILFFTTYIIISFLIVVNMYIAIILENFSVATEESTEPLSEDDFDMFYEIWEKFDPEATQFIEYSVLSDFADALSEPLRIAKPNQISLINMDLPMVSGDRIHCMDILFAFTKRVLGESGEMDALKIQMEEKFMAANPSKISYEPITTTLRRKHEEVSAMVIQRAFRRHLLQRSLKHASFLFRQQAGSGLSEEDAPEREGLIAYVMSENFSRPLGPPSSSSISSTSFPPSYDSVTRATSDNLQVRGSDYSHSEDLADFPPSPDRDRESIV
T1 sequence (Q99250 whole entry): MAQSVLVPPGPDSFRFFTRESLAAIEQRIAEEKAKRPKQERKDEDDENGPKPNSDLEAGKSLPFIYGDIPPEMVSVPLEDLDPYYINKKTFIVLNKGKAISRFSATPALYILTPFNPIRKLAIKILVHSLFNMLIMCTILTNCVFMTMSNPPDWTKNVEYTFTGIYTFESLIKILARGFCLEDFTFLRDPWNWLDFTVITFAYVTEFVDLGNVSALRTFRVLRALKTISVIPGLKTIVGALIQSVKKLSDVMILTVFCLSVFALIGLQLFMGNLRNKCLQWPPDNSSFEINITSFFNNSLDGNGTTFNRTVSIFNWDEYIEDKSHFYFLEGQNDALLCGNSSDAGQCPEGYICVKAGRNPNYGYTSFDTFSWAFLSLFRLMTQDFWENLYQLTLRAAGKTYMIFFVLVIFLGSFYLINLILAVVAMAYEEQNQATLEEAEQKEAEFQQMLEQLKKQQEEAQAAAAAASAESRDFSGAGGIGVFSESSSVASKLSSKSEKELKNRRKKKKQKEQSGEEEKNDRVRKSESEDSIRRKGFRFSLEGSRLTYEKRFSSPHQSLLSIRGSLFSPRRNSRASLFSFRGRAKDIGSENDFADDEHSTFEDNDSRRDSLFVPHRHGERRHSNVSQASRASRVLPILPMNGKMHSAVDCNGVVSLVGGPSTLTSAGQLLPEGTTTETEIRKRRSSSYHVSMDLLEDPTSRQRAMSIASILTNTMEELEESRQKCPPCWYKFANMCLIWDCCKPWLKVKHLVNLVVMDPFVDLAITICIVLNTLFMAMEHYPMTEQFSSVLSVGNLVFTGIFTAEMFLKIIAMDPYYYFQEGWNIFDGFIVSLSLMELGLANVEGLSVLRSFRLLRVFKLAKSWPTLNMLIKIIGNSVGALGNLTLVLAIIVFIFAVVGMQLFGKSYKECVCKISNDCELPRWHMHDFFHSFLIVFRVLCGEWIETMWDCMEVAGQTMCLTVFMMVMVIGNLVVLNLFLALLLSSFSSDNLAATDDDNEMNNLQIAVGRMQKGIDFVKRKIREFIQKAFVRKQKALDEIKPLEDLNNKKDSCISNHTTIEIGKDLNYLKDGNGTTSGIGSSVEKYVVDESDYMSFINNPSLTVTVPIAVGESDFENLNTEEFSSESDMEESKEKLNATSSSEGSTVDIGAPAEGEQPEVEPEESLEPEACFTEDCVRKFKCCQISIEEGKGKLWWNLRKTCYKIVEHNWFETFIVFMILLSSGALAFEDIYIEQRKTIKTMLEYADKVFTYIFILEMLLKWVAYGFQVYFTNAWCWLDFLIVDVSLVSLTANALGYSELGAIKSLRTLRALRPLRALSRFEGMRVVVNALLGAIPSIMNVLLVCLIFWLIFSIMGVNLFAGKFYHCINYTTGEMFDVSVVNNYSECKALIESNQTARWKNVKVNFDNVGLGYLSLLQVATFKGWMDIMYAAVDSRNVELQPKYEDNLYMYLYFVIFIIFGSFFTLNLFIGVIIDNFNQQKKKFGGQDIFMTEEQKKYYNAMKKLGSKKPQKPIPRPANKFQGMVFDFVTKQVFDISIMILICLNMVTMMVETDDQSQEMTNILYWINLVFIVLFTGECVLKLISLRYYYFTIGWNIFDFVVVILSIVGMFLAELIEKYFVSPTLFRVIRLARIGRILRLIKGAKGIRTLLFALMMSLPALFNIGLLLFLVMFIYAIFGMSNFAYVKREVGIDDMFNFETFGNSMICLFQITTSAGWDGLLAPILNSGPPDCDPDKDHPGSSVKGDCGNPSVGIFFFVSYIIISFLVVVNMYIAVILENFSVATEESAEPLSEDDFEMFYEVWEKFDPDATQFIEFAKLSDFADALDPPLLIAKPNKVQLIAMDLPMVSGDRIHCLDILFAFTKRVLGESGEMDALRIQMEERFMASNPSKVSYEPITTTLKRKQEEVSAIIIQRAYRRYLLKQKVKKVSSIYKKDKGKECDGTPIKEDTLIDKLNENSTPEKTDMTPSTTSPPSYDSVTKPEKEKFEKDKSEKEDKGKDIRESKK
T1 sequence (Q07699 19-218 partner): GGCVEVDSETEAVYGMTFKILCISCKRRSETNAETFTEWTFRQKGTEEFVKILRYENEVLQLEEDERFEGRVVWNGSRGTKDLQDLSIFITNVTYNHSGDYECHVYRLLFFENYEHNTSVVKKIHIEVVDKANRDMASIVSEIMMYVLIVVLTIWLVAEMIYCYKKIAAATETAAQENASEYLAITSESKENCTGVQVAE
T1 sequence (O60939 30-215 partner): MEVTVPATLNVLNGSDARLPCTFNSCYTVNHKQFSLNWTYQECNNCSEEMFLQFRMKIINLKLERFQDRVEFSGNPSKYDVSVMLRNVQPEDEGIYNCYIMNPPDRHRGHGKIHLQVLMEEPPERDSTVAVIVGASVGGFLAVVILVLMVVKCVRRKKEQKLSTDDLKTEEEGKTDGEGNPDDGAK

With `CC1c2cc(-c3ccc(Cl)c(F)c3)ccc2OC(=O)N1Cc1ncccn1` (stereo not drawn) [Example 11, 6-(4-chloro-3-fluorophenyl)-4-methyl-3-(pyrimidin-2-ylmethyl)-3,4-dihydro-2H-benzo[e][1,3]oxazin-2-one], the inhibition at 1 µM in test [1] came out at 32.5%. Also, at hNaV1.2 (SCN2A), the inhibition at 1 µM was 29.9% and the inhibition at 10 µM is 77.2%.

`O=C1Oc2ccc(-c3ccc(C(F)(F)F)cc3)cc2CN1Cc1ccncc1` [Example 2, 3-(pyridin-4-ylmethyl)-6-(4-(trifluoromethyl)phenyl)-3,4-dihydro-2H-benzo[e][1,3]oxazin-2-one]: the inhibition at 1 µM in test [1] stood at 41.5%. On hNaV1.2 (SCN2A), the inhibition at 1 µM came to 19.8% and the inhibition at 10 µM was found to be 28.1%.

As for `Cc1csc(CN2Cc3cc(-c4ccc(OC(F)(F)F)c(C)c4)ccc3OC2=O)n1` [Example 54, 6-(3-methyl-4-(trifluoromethoxy)phenyl)-3-((4-methylthiazol-2-yl)methyl)-3,4-dihydro-2H-benzo[e][1,3]oxazin-2-one], in test [1], the inhibition at 1 µM is 31%. For the same compound, on hNaV1.2 (SCN2A), the inhibition at 1 µM amounted to 6.1% and the inhibition at 10 µM turned out to be 43.5%.

On to `CCCOc1cc(C(F)(F)F)ccc1-c1ccc2c(c1)CN(CCc1ncccn1)C(=O)O2` [Example 19, 6-(2-propoxy-4-(trifluoromethyl)phenyl)-3-(2-(pyrimidin-2-yl)ethyl)-3,4-dihydro-2H-benzo[e][1,3]oxazin-2-one], for which the inhibition at 1 µM in test [1] worked out at 68%. Besides, on hNaV1.2 (SCN2A), the inhibition at 1 µM worked out at 30.6% and the inhibition at 10 µM is 64%.

Take `CC(C)Oc1cc(C(F)(F)F)ccc1-c1ccc2c(c1)CN(Cc1ncccn1)C(=O)O2` [Example 25, 6-(2-isopropoxy-4-(trifluoromethyl)phenyl)-3-(pyrimidin-2-ylmethyl)-3,4-dihydro-2H-benzo[e][1,3]oxazin-2-one]: the inhibition at 1 µM in test [1] was determined as 54%. In addition, on hNaV1.2 (SCN2A), the inhibition at 1 µM amounted to 29.9% and the inhibition at 10 µM amounted to 72.1%.

For `Cc1ccnc(CN2Cc3cc(-c4ccc(OC(F)(F)F)cc4)ccc3OC2=O)n1` [Example 29, 3-((4-methylpyrimidin-2-yl)methyl)-6-(4-(trifluoromethoxy)phenyl)-3,4-dihydro-2H-benzo[e][1,3]oxazin-2-one], the inhibition at 1 µM in test [1] was found to be 61.6%. For the same compound, at hNaV1.2 (SCN2A), the inhibition at 1 µM stood at 36.1% and the inhibition at 10 µM turned out to be 81.7%.

Turning to `Cc1csc(CN2Cc3cc(-c4ccc(OC(F)(F)F)cc4)ccc3OC2=O)n1` [Example 52, 3-((4-methylthiazol-2-yl)methyl)-6-(4-(trifluoromethoxy)phenyl)-3,4-dihydro-2H-benzo[e][1,3]oxazin-2-one], the inhibition at 1 µM in test [1] was 58%. On hNaV1.2 (SCN2A), the inhibition at 1 µM came to 20.8% and the inhibition at 10 µM is 63.7%.

Regarding `COc1cc(C(F)(F)F)ccc1-c1ccc2c(c1)CN(Cc1ncccn1)C(=O)O2` [Example 34, 6-(2-methoxy-4-(trifluoromethyl)phenyl)-3-(pyrimidin-2-ylmethyl)-3,4-dihydro-2H-benzo[e][1,3]oxazin-2-one], the inhibition at 1 µM in test [1] was 44.6%. Besides, at hNaV1.2 (SCN2A), the inhibition at 1 µM was determined as 38.8% and the inhibition at 10 µM came to 78.5%.

For `COc1cc(OC(F)(F)F)ccc1-c1ccc2c(c1)CN(CCc1ncccn1)C(=O)O2` [Example 18, 6-(2-methoxy-4-(trifluoromethoxy)phenyl)-3-(2-(pyrimidin-2-yl)ethyl)-3,4-dihydro-2H-benzo[e][1,3]oxazin-2-one], the inhibition at 1 µM in test [1] worked out at 31.4%. Further, on hNaV1.2 (SCN2A), the inhibition at 1 µM is 9.1% and the inhibition at 10 µM came to 54.9%.

In the case of `Cc1cnc(CN2Cc3cc(-c4ccc(C(F)(F)F)cc4C)ccc3OC2=O)nc1` [Example 43, 6-(2-methyl-4-(trifluoromethyl)phenyl)-3-((5-methylpyrimidin-2-yl)methyl)-3,4-dihydro-2H-benzo[e][1,3]oxazin-2-one], the inhibition at 1 µM in test [1] is 37.9%; at hNaV1.2 (SCN2A) it was < 5%. The inhibition at 10 µM at hNaV1.2 (SCN2A) is 48.9%.

In the case of `Cc1cc(C(F)(F)F)ccc1-c1ccc2c(c1)CN(Cc1ncccn1)C(=O)O2` [Example 37, 6-(2-methyl-4-(trifluoromethyl)phenyl)-3-(pyrimidin-2-ylmethyl)-3,4-dihydro-2H-benzo[e][1,3]oxazin-2-one], the inhibition at 1 µM in test [1] was determined as 41.1%. Further, at hNaV1.2 (SCN2A), the inhibition at 1 µM was 7.8% and the inhibition at 10 µM was 27.1%.

As to `O=C1Oc2ccc(-c3ccc4c(c3)OC(F)(F)O4)cc2CN1Cc1ncccn1` [Example 26, 6-(2,2-difluorobenzo[d][1,3]dioxol-5-yl)-3-(pyrimidin-2-ylmethyl)-3,4-dihydro-2H-benzo[e][1,3]oxazin-2-one], the inhibition at 1 µM in test [1] was 35.2%. On hNaV1.2 (SCN2A), the inhibition at 1 µM turned out to be 28% and the inhibition at 10 µM is 71.1%.

Consider `COc1cc(C(F)(F)F)ccc1-c1ccc2c(c1)CN(Cc1ncc(C)cn1)C(=O)O2` [Example 42, 6-(2-methoxy-4-(trifluoromethyl)phenyl)-3-((5-methylpyrimidin-2-yl)methyl)-3,4-dihydro-2H-benzo[e][1,3]oxazin-2-one], for which the inhibition at 1 µM in test [1] is 42.7%; on hNaV1.2 (SCN2A), 13.3%. The inhibition at 10 µM at hNaV1.2 (SCN2A) came to 47.4%.

As to `Cc1cccc(CN2Cc3cc(-c4ccc(C(F)(F)F)cc4F)ccc3OC2=O)n1` [Example 45, 6-(2-fluoro-4-(trifluoromethyl)phenyl)-3-((6-methylpyridin-2-yl)methyl)-3,4-dihydro-2H-benzo[e][1,3]oxazin-2-one], in test [1], the inhibition at 1 µM was 53.6%. Moreover, at hNaV1.2 (SCN2A), the inhibition at 1 µM amounted to 10.4% and the inhibition at 10 µM was 62.3%.

On to `Cc1cnc(CN2Cc3cc(-c4ccc(OC(F)(F)F)cc4F)ccc3OC2=O)nc1` [Example 14, 6-(2-fluoro-4-(trifluoromethoxy)phenyl)-3-((5-methylpyrimidin-2-yl)methyl)-3,4-dihydro-2H-benzo[e][1,3]oxazin-2-one], for which the inhibition at 1 µM in test [1] came to 39.3%. Also, on hNaV1.2 (SCN2A), the inhibition at 1 µM was < 5% and the inhibition at 10 µM was 59.9%.

Take `O=C1Oc2ccc(-c3ccc(C(F)(F)F)cc3)cc2CN1CCc1ncccn1` [Example 17, 3-(2-(pyrimidin-2-yl)ethyl)-6-(4-(trifluoromethyl)phenyl)-3,4-dihydro-2H-benzo[e][1,3]oxazin-2-one]: the inhibition at 1 µM is 45% in test [1] and 34.2% at hNaV1.2 (SCN2A). The inhibition at 10 µM at hNaV1.2 (SCN2A) amounted to 56.6%.

For `Cc1csc(CN2Cc3cc(-c4ccc(OC(F)(F)F)cc4F)ccc3OC2=O)n1` [Example 55, 6-(2-fluoro-4-(trifluoromethoxy)phenyl)-3-((4-methylthiazol-2-yl)methyl)-3,4-dihydro-2H-benzo[e][1,3]oxazin-2-one], in test [1], the inhibition at 1 µM came out at 35.3%. In addition, on hNaV1.2 (SCN2A), the inhibition at 1 µM stood at 22.6% and the inhibition at 10 µM is 61.8%.

Turning to `Cc1cc(OC(F)(F)F)ccc1-c1ccc2c(c1)CN(Cc1ncccn1)C(=O)O2` [Example 8, 6-(2-methyl-4-(trifluoromethoxy)phenyl)-3-(pyrimidin-2-ylmethyl)-3,4-dihydro-2H-benzo[e][1,3]oxazin-2-one], the inhibition at 1 µM is 52.7% in test [1] and < 5% at hNaV1.2 (SCN2A). For the same compound, the inhibition at 10 µM on hNaV1.2 (SCN2A) was 11%.

`CCOc1cc(C(F)(F)F)ccc1-c1ccc2c(c1)CN(Cc1ncccn1)C(=O)O2` [Example 35, 6-(2-ethoxy-4-(trifluoromethyl)phenyl)-3-(pyrimidin-2-ylmethyl)-3,4-dihydro-2H-benzo[e][1,3]oxazin-2-one]: in test [1], the inhibition at 1 µM was 49.4%. At hNaV1.2 (SCN2A), the inhibition at 1 µM was determined as 39.3% and the inhibition at 10 µM was found to be 75.1%.
